Literature values in PMC8278929 (Chemical Science, 2021).
Values belong to the compound of their own block, whether it stands above or below them.

How the values were obtained:
[1] = free, uncoordinated alcohol, no reference given
[2] = analogue of 11
[3] = in PBS, Os/pyr/for 1:200:400

- estimated pKa [1]: ca. 16
Compound: OCCCc1ccccc1 [3-phenyl-1-propanol]

- ΔS^‡ (entropy of hydrolysis) [2]: −55.6 ± 1.6 J K^−1 mol^−1
Compound: [Os(η^6-C6H5C6H5)(4-Me-pico)Cl]^+

Compound: [Os(η^6-p-cymene)(TsDPEN)]
- TOFmax [3]: 1.5 h⁻¹
